# Assay results from US9303036B2, “Crystalline asenapine hydrochloride salt forms” (Sandoz AG, priority 2011, dated 2016).
# Where a name gives a salt, the structure may show the parent alone.
# Tests used:
# [1] = Water uptake by dynamic vapor absorption; assay type: physicochemical
# Experimental: Asenapine HCl dihydrate of the invention can absorb about 1.5% of additional water at 95% relative humidity at 25° C. and most of the water uptake occurs above 80% relative humidity as shown by dynamic vapor absorption.
# [2] = Aqueous solubility by suspension equilibration in water, concentration in filtrate by HPLC; assay type: physicochemical
# Experimental: The aqueous solubility was determined after 40 hours of suspension equilibration at 25° C. Thereafter, the suspension was filtered and the concentration in the liquid phase was determined by HPLC. The excellent solubility of the Asenapine hydrochloride dihydrate of the invention may render the salt to an excellent alternative to known salts of Asenapine, especially for a fast dissolving formulation.
# An HPLC instrument from TSP (UV3000, AS3000, P4000, SCM1000 using software version 4.1) was used in combination with a column from Waters (XTerra MS 018, 4.6×100 mm, 5 μm (CC01A)). The mobile phase A was H2O/ACN 95:5 with 0.1% TFA, and mobile phase B was H2O/ACN 5:95 with 0.1% TFA. The reference concentration was 0.09 mg/mL. The Asenapine peak appeared at a retention time.
# 4.0-4.1 min. The method was isocratic with 70% mobile phase A and 30% mobile phase B at 0 min and after 10 min at a flow of 1.0 mL/min. The injection volume was 10 μL and the detection wavelength 202 nm.
# The aqueous solubility of Asenapine salts is determined in water after 48 hours of suspension equilibration at 25° C. 200 mg of Asenapine hydrochloride is suspended in 1.5 ml of bidistilled water and the resulting suspension is placed on a laboratory shaker at 500 rpm. Thereafter, the suspension is filtered and the concentration in the liquid phase was determined by HPLC as described above. […]
# [3] = 23° C., pH=4.4; cited from earlier work
# [4] = Solubility of Asenapine maleate in saturated solution (Funke et al., literature); assay type: physicochemical; conditions: water (saturated solution), thermodynamic from solid, converted from the maleate salt value at 23° C., pH=4.4, read-out: free base solubility
# From the text: Certain crystalline addition salts of Asenapine, for instance a fumarate (EP 0569096), salts with sulfonic acids (WO 98/54186), and a pamoate or hemipamoate salt (EP 0569096), are described in the literature. The pamoate salt is disclosed to be amorphous and the hemipamoate salt is a mixture of amorphous and crystalline phase, wherein the palmitate is described as oil. The marketed form is the maleate salt, which is disclosed to exist in polymorphic forms (WO 2006/106135). The known Asenapine salts have a low solubility in water.
"additional water absorbed ([1]; 95% relative humidity at 25° C., most uptake above 80% relative humidity)","hygroscopicity ([1]; dynamic vapor absorption, 25° C.)","solubility at 2 days ([2]; pH 4, thermodynamic from solid, 25° C., 600 rpm, two days of equilibration, at a pH of 4.0, read-out: aqueous solubility (concentration of Asenapine in the filtered solution by HPLC))","solubility at 40 h ([2]; thermodynamic from solid, at 25° C., calculated as free base, after 40 hours of suspension equilibration, HPLC)",solubility [4],SMILES,concentration of saturated solution [3]
about 1.5%,"not, or only very slightly hygroscopic",24.2 mg/mL,24.2 mg/mL,,"CN1C[C@H]2c3ccccc3Oc3ccc(Cl)cc3[C@@H]2C1 (relative stereo) [Asenapine HCl dihydrate, trans-5-chloro-2-methyl-2,3,3a,12b-tetrahydro-1H-dibenz[2,3:6,7]oxepino[4,5-c]pyrrole]",
,,,,~4.1 mg/mL,"CN1C[C@@H]2c3ccccc3Oc3ccc(Cl)cc3[C@H]2C1 (relative stereo) [maleate salt of Asenapine, trans-5-chloro-2-methyl-2,3,3a,12b-tetrahydro-1H-dibenz[2,3:6,7]oxepino[4,5-c]pyrrole]",5800 µg/mL
